ChEMBL document CHEMBL1130480, “Structure-activity relationship of cantharidin derivatives to protein phosphatases 1, 2A1, and 2B” (Bioorg Med Chem Lett, 1997)

What was measured:
Oryctolagus cuniculus [1] = species: Oryctolagus cuniculus; assay: Inhibition of Protein phosphatase 1 at 0.1 mM
Oryctolagus cuniculus [2] = species: Oryctolagus cuniculus; assay: Inhibition of Protein phosphatase 1 at 1 mM
Bos taurus [3] = species: Bos taurus; assay: Inhibition of Protein phosphatase 2B (PP2B) at 1 mM
Oryctolagus cuniculus [4] = species: Oryctolagus cuniculus; assay: Inhibition of Protein phosphatase 2A1 (PP2A1) at 0.1 mM
Bos taurus [5] = species: Bos taurus; assay: Inhibition of Protein phosphatase 2B (PP2B) at 0.1 mM
Oryctolagus cuniculus [6] = species: Oryctolagus cuniculus; assay: Inhibition of Protein phosphatase 2A1 (PP2A1) at 1 mM

SMILES	inhibition (Oryctolagus cuniculus [1])	inhibition (Oryctolagus cuniculus [2])	inhibition (Bos taurus [3])	inhibition (Oryctolagus cuniculus [4])	inhibition (Bos taurus [5])	inhibition (Oryctolagus cuniculus [6])
O=C1OC(=O)C2C3CCC(O3)C12 (centres undefined)	95%	100%	98%	94%	35%	100%
O=C(O)C1C2CCC3(COC(=O)C13)O2 (centres undefined)	9%	20%	20%	8%	18%	8%
CC(=O)OCC1CC2OC1C1C(=O)OC(=O)C21 (centres undefined)	90%	100%	85%	70%	20%	98%
O=C1OC(=O)C2C3OC(C=C3COC3CCCCC3)C12 (centres undefined)	50%	60%	70%	80%	30%	100%
CC(=O)OCC12C=CC(O1)C(C(=O)O)C2C(=O)O (centres undefined)	5%	40%	60%	0%	10%	25%
CC12CCC(C)(O1)C(C(=O)O)C2C(=O)O (centres undefined)	0%	1%	18%	0%	17%	2%
O=C1OC(=O)C2C3OC(CC3COC3CCCCC3)C12 (centres undefined)	70%	90%	100%	75%	40%	100%
CC(=O)OCC1=CC2OC1C1C(=O)OC(=O)C21 (centres undefined)	59%	92%	90%	60%	25%	98%
CC(=O)OCC12C=CC(O1)C1C(=O)OC(=O)C12 (centres undefined)	5%	30%	50%	5%	10%	40%
CC(=O)OCC12CCC(O1)C1C(=O)OC(=O)C12 (centres undefined)	20%	70%	45%	5%	30%	50%
C[C@@]12C(=O)OC(=O)[C@]1(C)C1CCC2O1	85%	90%	38%	85%	15%	98%
O=C1OC(=O)C2C1C1C=CC2(CO)O1 (centres undefined)	8%	18%	50%	5%	10%	12%
O=C1OC(=O)C2C3C=CC(O3)C12 (centres undefined)	95%	98%	99%	95%	40%	95%
CC(=O)OCC1=CC2OC1C(C(=O)O)C2C(=O)O (centres undefined)	50%	80%	89%	40%	20%	90%
